“Also recorded” adds a separate entry of the source.
Tested on: phospholipase C-γl
Assay: Effect of tyrosine kinase inhibitor on ATP-dependent stimulation of immunocaptured phospholipase C-γl catalytic activity ([3H]PtdIns(4,5)P2 hydrolysis)
Assay type: biochemical
Settings: 50 μM genistein, 20 minutes, 35° C.; enzyme captured from rat hippocampal formation P2 extract; in the presence of CaMKII, PKC and PKA inhibitors
Description: Anti-phospholipase C-γl antibodies were coated onto biotinylated anti-globulin immobilized on streptavidin at 200 ng of rabbit polyclonal antibody/100 μL per well. Each well was then incubated with 20 μg of rat hippocampal P2 extract overnight, and, subsequently, washed three times (5 minutes each) with room temperature PBS buffer. […]
Phospholipase C-γl enzyme activity was quantified essentially as described in Weeber et al. (Neurobiology of Learning and Memory 76 (2001) 151-182). […] 300 μL of the supernatant containing the reaction product ([^3H]Ins(1,4,5)P3) was removed and quantified by liquid scintillation spectroscopy. Immune-complex-dependent activity was calculated by subtracting background [^3H]Ins(1,4,5)P3 (release present in normal rabbit IgG antibody control samples) from the activity measured in wells containing anti-phospholipase C-γl antibody. Data were calculated as nanomoles Ins(1,4,5)P3 product formed per minute, or per mg protein, or per minute per mg protein present in the extract from which the enzyme was affinity purified.
We sought to determine whether the technique that we used for the affinity capture of phospholipase C-γl allowed for the detection of tyrosine kinase(s) that associate with the phospholipase C-γl. […] The wells were then rinsed with 1.25× phospholipase C assay buffer and the catalytic activity of the isozyme was determined. […]

O=c1c(-c2ccc(O)cc2)coc2cc(O)cc(O)c12 [genistein]
ATP-dependent stimulation of phospholipase C-γl catalytic activity: blocks; also recorded: completely inhibited
